# Earlier results as cited in patent US6352152B1, “Method and package for storing a pressurized container containing a drug” (Smithkline Beecham Corporation, priority 1998, dated 2002).
# Conditions: Pischtiak 1999, Solvay chemical data sheet
row,maximum water solubility in the propellant,SMILES
1,about 130 ppm,FC(F)(Cl)C(F)(F)Cl [CFC 114]
2,about 2200 ppm,"FCC(F)(F)F [HFC 134a, 1,1,1,2-tetrafluoroethane]"

row,SMILES,maximum water solubility in the propellant
1,FC(F)(Cl)Cl [CFC 12],about 130 ppm
